The source of these data is patent US4940730A, “Angiogenesis enhancer” (Takeda Chemical Industries, Ltd., priority 1987, dated 1990).

The subject of experiment [1] is hen's chlorioallantoic membrane. In words: CAM (Chorio Allantoic Membrane) assay. It is filed as in vivo. The conditions noted are these: for ED50: amount of drug which gave the numerical value 5 (positive rate) in CAM assay; for Positive rate of CAM assay: average neovascularization score (++=10, +=7, °=3, -=0), 3 days on membrane. As for the experimental part: CAM (Chorio Allantoic Membrane) assay was conducted on various compounds of the present invention. The technique of the CAM assay was that modified somewhat on Auerbach's method [Developmental Biology, 41, 391 (1974)]. More specifically, hen's fertile eggs were incubated for three days at 37° C. (Napco carbon dioxide incubator-6300 was employed, CO2 :0% H2 O saturated). Polypropylene-made discs (6 mm. diameter) were spotted with a chloroform:ethanol (1:4 by volume) solution of each compound so that the concentration may be 0, 0.25, 0.64, 1.6, 4, 10 and 25 ug, respectively. The test materials were air-dried in a clean bench, which were then placed quietly on hen's chlorioallantoic membrane, followed by incubation at 37° C. for further three days. Then, the vascularization state was observed. In the tables, the positive rates were calculated on the following basis. Namely, degrees of neovascularization were determined as ++ for very strong, + for strong, ° for weak and - for negative, and they were numerized as 10, 7, 3 and 0, respectively. The average numerical value in each of the concentrations of the respective samples was made as positive rate. Further, the amount of the drug which gave the numerical value 5 in each sample was shown as ED50 value (ug/disc).

In the next experiment the test system is cornea. Briefly: Rat cornea test. The note with it: after two weeks; for elongation of blood vessels: rat cornea. It is filed as in vivo, Wister rats. The source says:
Namely, Wister rats (14-week old, male) were anesthetized, then pockets (about 2×3 mm in size) were provided in the cornea. […] The test samples enveloped were erucamide, lauramide and erucic acid, and, as the control, Elvax®-40 in which nothing was enveloped was used.

For the next experiment, the system named is dorsal air-sack. In words: Mouse dorsal air-sack method. The conditions noted are these: ten days later; for blood vessel elongation action: 1 mg test sample enveloped in Elvax-40. Further details: key to blood vessel elongation action: +, ++; blood vessel elongation action positive; +, ++; blood vessel elongation action positive; -: blood vessel elongation action negative. It is filed as in vivo, ICR mice. As for the experimental part:
Experimental work was conducted in accordance with the method of Yoshii et al. [Igaku no ayumi, 122 (No. 10), p. 890 (1982)]. More specifically, ICR mice (9-week old, males) were anesthetized, and the hair at the dorsal site was shaved with clippers. The site was sterilized with alcohol, and an injection needle was inserted at the site located at a distance of 1 cm from the tail side. Through the needle, about 20 ml of air was introduced. Then, the air in the air-sack (on the tail side) was drawn out. Test samples enveloped in Elvax®-40 were inserted into both, left and right, sides (at one of the both sides, only Elvax®-40 as the control). The incised site was closed, and, ten days later, the site was incised again and the state of elongation of blood vessel was observed. The test samples enveloped were erucamide, lauramide and erucic acid, and the results compared with one another.

The mark [2] stands for this setting: amount of sample 0.64 μg per disc.
Where [3] appears, read: amount of sample 1.6 μg per disc.
[4] abbreviates: amount of sample 10 μg per disc.
The mark [5] stands for this setting: amount of sample 25 μg per disc.
[6] abbreviates: 30 μg test material in Elvax-40 gel in corneal pocket.

Where a name gives a salt, the structure may show the parent alone.

Compound `CCCCCCCC/C=C\CCCCCCCCCCCC(N)=O` [Erucamide] came in with an ED50 in experiment [1] of 2.13 ug/disc. Further, the “Positive rate of CAM assay” value in experiment [1] (setting [2]) was determined as 1.4; in experiment [1] (setting [3]), 3.4; in experiment [1] (amount of sample 4 μg per disc), 9.4; in experiment [1] (setting [4]) it was 10; in experiment [1] (setting [5]), 10. The “Action of elongation of blood vessel” value in the experiment on cornea (setting [6]) is listed as “++”. Also, the “elongation of blood vessels” value in the experiment on cornea is reported as “strong elongation action”. The “blood vessel elongation action” value with dorsal air-sack is “++”. The “blood vessel elongation” value in the experiment with dorsal air-sack (mouse dorsal air-sack) was “strong action of blood vessel elongation”.

As for `CCCCCCCCCCCC(N)=O` [Lauramide, reference compound], the “Positive rate of CAM assay” value in experiment [1] (setting [2]) came to 0.3; in experiment [1] (setting [3]), 0.7; in experiment [1] (amount of sample 4 μg per disc), 0; in experiment [1] (setting [4]) it was 0; in experiment [1] (setting [5]) it was 0.3. Besides, in the experiment with cornea (60 μg test material in Elvax-40 gel in corneal pocket), the “Action of elongation of blood vessel” value was “-”. For the same compound, the “blood vessel elongation action” value in the experiment on dorsal air-sack is recorded as “-”.

In the case of `CCCCCCCC/C=C\CCCCCCCCCCCCN` [1-Amino-13-docosene.HCl], the ED50 in experiment [1] is listed as 0.94 ug/disc. The “Positive rate of CAM assay” value in experiment [1] (setting [2]) is 3.4; in experiment [1] (setting [3]), 7.0; in experiment [1] (amount of sample 4 μg per disc) it was 8.8; in experiment [1] (setting [4]) it was 10; in experiment [1] (setting [5]), more than 10.

Turning to `CCCCCCCC/C=C\CCCCCCCCCCCC(=O)Nc1ccc(Cl)cc1C(=O)O` [2-NH2-4-Cl-BzCO2 H, N-erucoyl-2-amino-5-chlorobenzoic acid], the ED50 in experiment [1] is on record as 2.70 ug/disc. The “Positive rate of CAM assay” value in experiment [1] (setting [2]) is on record as 2.6; in experiment [1] (setting [3]) it was 4.2; in experiment [1] (amount of sample 4 μg per disc), 5.6; in experiment [1] (setting [4]) it was 8.0; in experiment [1] (setting [5]), 10.

As for `CCCCCCCCCCCCCCCCCCCCCCO` [Docosan-1-ol], in experiment [1], the ED50 was 2.55 ug/disc. The “Positive rate of CAM assay” value in experiment [1] (setting [2]) stood at 0; in experiment [1] (setting [3]), 1.8; in experiment [1] (amount of sample 4 μg per disc), 8.3; in experiment [1] (setting [4]), 10; in experiment [1] (setting [5]), 10.

Regarding `CCCC(N)=O` [Butyramide, reference compound], the “Positive rate of CAM assay” value in experiment [1] (setting [2]), in experiment [1] (setting [3]), in experiment [1] (amount of sample 4 μg per disc), in experiment [1] (setting [4]) and in experiment [1] (setting [5]) was 0 in each case.

With `CCCCCCCCCCCCCCCCCCCCCCCCCC(=O)O` [Cerotic acid], the ED50 in experiment [1] is reported as 2.75 ug/disc. For the same compound, the “Positive rate of CAM assay” value worked out at 1.8 in experiment [1] (setting [2]); 2.5 in experiment [1] (setting [3]); 7.8 in experiment [1] (amount of sample 4 μg per disc); 9.3 in experiment [1] (setting [4]); 8.5 in experiment [1] (setting [5]).

In experiment [1], `CCCCCCCC/C=C\CCCCCCCCCCCC(=O)Nc1cccc(C(=O)O)c1` [m-aminobenzoic acid, N-ercoyl-3-aminobenzoic acid] registered an ED50 of 1.28 ug/disc. The “Positive rate of CAM assay” value was found to be 2.0 in experiment [1] (setting [2]); 6.0 in experiment [1] (setting [3]); 7.4 in experiment [1] (amount of sample 4 μg per disc); 10 in experiment [1] (setting [4]); 10 in experiment [1] (setting [5]).

`CCCCCCCC/C=C\CCCCCCCCCCCC(=O)O` [Erucic acid] registered an ED50 in experiment [1] of 4.69 ug/disc. In addition, the “Positive rate of CAM assay” value worked out at 1.4 in experiment [1] (setting [2]); 2.8 in experiment [1] (setting [3]); 4 in experiment [1] (amount of sample 4 μg per disc); 8.2 in experiment [1] (setting [4]); 9.4 in experiment [1] (setting [5]). In the experiment on cornea (setting [6]), the “Action of elongation of blood vessel” value is “++”. In addition, the “elongation of blood vessels” value in the experiment with cornea is reported as “strong elongation action”.

Regarding `CCCCCCCC/C=C\CCCCCCCC(=O)O` [Oleic acid], the ED50 in experiment [1] was determined as 13.7 ug/disc. For the same compound, the “Positive rate of CAM assay” value worked out at 0 in experiment [1] (setting [2]); 0.8 in experiment [1] (setting [3]); 2.5 in experiment [1] (amount of sample 4 μg per disc); 4 in experiment [1] (setting [4]); 7 in experiment [1] (setting [5]).

Take `CCCCCCCCCCCCCCCCCCCCCC[N+](C)(C)C` [1-Trimethyammonio docosane bromide]: in experiment [1], the ED50 amounted to 4.00 ug/disc. The “Positive rate of CAM assay” value in experiment [1] (setting [2]) worked out at 0; in experiment [1] (setting [3]) it was 4.5; in experiment [1] (amount of sample 4 μg per disc) it was 5.0; in experiment [1] (setting [4]), 8.0.

Consider `CCCCCCCCCCCCCCCCCC(N)=O` [Stearamide], for which the ED50 in experiment [1] was determined as 2.63 ug/disc. In addition, the “Positive rate of CAM assay” value was determined as 0 in experiment [1] (setting [2]); 2 in experiment [1] (setting [3]); 7.6 in experiment [1] (amount of sample 4 μg per disc); 7.7 in experiment [1] (setting [4]); 6.9 in experiment [1] (setting [5]).

In experiment [1], `CCCCCCCC/C=C\CCCCCCCCCCCCO` [13-Docosen-1-ol] gave an ED50 of 2.15 ug/disc. For the same compound, the “Positive rate of CAM assay” value is recorded as 1.4 in experiment [1] (setting [2]); 4.8 in experiment [1] (setting [3]); 6.8 in experiment [1] (amount of sample 4 μg per disc); 9.4 in experiment [1] (setting [4]); 10 in experiment [1] (setting [5]).

In experiment [1], `CCCCCCCC/C=C\CCCCCCCCCCCC(=O)N(CCO)CCO` [N, N-di-diethanol] yielded an ED50 of 2.42 ug/disc. Moreover, the “Positive rate of CAM assay” value in experiment [1] (setting [2]) is 1.0; in experiment [1] (setting [3]), 2.3; in experiment [1] (amount of sample 4 μg per disc), 8.0; in experiment [1] (setting [4]), 10; in experiment [1] (setting [5]) it was 10.

Regarding `CCCCCCCCCCCCCCCCCCCCCC(N)=O` [Behenamide], in experiment [1], the ED50 is 2.76 ug/disc. For the same compound, the “Positive rate of CAM assay” value in experiment [1] (setting [2]) came to 0; in experiment [1] (setting [3]), 1.8; in experiment [1] (amount of sample 4 μg per disc), 7.6; in experiment [1] (setting [4]), 10; in experiment [1] (setting [5]), 10.

In experiment [1], `CCCCCCCCCCCCCC(=O)O` [Myristic acid] came in with an ED50 of 25.0 ug/disc. Besides, the “Positive rate of CAM assay” value in experiment [1] (setting [2]) is 0; in experiment [1] (setting [3]) it was 0; in experiment [1] (amount of sample 4 μg per disc), 0.8; in experiment [1] (setting [4]), 4; in experiment [1] (setting [5]) it was 5.

For `CCCCCCCC/C=C\CCCCCCCCCCCC(=O)N(C)C` [N,N-dimethyl], in experiment [1], the ED50 is on record as 5.41 ug/disc. Moreover, the “Positive rate of CAM assay” value is on record as 0 in experiment [1] (setting [2]); 1.5 in experiment [1] (setting [3]); 3.3 in experiment [1] (amount of sample 4 μg per disc); 8.5 in experiment [1] (setting [4]); 9.3 in experiment [1] (setting [5]).

In turn, `CCCCC/C=C\C/C=C\C/C=C\C/C=C\CCCC(=O)O` [Arachidonic acid] yielded an ED50 in experiment [1] of 3.64 ug/disc. The “Positive rate of CAM assay” value was 2.5 in experiment [1] (setting [2]); 3.5 in experiment [1] (setting [3]); 5.3 in experiment [1] (amount of sample 4 μg per disc); 7 in experiment [1] (setting [4]); 10 in experiment [1] (setting [5]).
